The text below walks through data of patent US20220054510A1, “USE OF 1-ALPHA-HYDROXYVITAMIN D5 AND RELATED COMPOUNDS AS PROPHYLACTIC OR THERAPEUTIC AGENTS FOR SARS-COV-2 (COVID-19 VIRUS) AND RELATED INFECTIONS” (priority 2020, published 2022).

For series [1], the system named is SARS-CoV-2. The series is classed as cell-based. Particulars: Ace2-A549 cells, concentration of 10 micromolar, FIG. 2.
For series [2], the system named is Ace2-A549 cells (human lung epithelial cells). The experiment in a line: host cell survival in SARS-CoV-2 infected Ace2-A549 cells. The conditions noted are these: concentration of 10 micromolar.
The subject of series [3] is SARS-CoV-2. The conditions noted are these: biorxiv.org/content/10.1101/2020.06.21.162396v1; cited from earlier work.

Regarding `C=C1/C(=C\C=C2/CCC[C@]3(C)[C@@H]([C@H](C)CC[C@@H](CC)C(C)C)CC[C@@H]23)C[C@@H](O)C[C@@H]1O` [1-alphahydroxyvitamin D5, 1-alpha-hydroxyvitamin D5], the “elimination of SARS-CoV-2 virus infection” value in the series on SARS-CoV-2 [1] is “greater than 99%”. In addition, the “killing of host cells” value in series [2] is recorded as “without killing the host cells”.

As for `C=C1/C(=C\C=C2/CCC[C@]3(C)[C@@H]([C@H](C)CCCC(C)(C)O)CC[C@@H]23)C[C@@H](O)C[C@@H]1O` [Calcitriol], the “in vitro activity against this virus” value with SARS-CoV-2 [3] is “in vitro activity against this virus”.
